Reference: patent US9902940B2, “Human blood-brain barrier endothelial cells derived from pluripotent stem cells and blood-brain barrier model thereof” (Wisconsin Alumni Research Foundation, priority 2010, dated 2018)
Where two headings read alike, the source gives them in different places.

Experiments:
[1] = tested on: IMR90-4-derived BMECs; test: Permeability coefficients (Pe) of radiolabeled small molecules across the IMR90-4-derived BMEC/astrocyte co-culture model
Description: For co-culture experiments, primary astrocytes were isolated as previously described^37. Briefly, cortices were isolated from P6 neonatal Sprague Dawley rats (Harlan) and minced in Hank's Balanced Salt Solution (HBSS; Sigma). […] After trituration and filtration, cells were cultured on collagen-I-coated flasks (100 μg/mL; Sigma) in DMEM containing 10% qualified heat-inactivated fetal bovine serum (FBS; Invitrogen), 10% heat-inactivated horse serum (Sigma), 2 mM L-glutamine, and 1% antibiotic-antimycotic (Invitrogen). Human embryonic kidney 293 cells (HEK cells; ATCC) were cultured in DMEM supplemented with 10% FBS, 1 mM sodium pyruvate (Sigma), 2 g/L sodium bicarbonate (Fisher Scientific), 30 mM HEPES (Sigma), and 1% antibiotic-antimycotic, and used as a non-neural cell control. Co-culture of hPSC-derived BMECs was initiated with primary rat astrocytes or HEK cells in either EC medium (called 1% PDS medium in Table 2) or 70:30 (v/v) DMEM/F12 (Sigma/Invitrogen) supplemented with 1% antibiotic-antimycotic, 2% B27 (Invitrogen), and 10% FBS^37 (called 10% FBS medium in Table 2). Trans-endothelial electrical resistance (TEER) measurements were performed using an EVOM voltohmmeter (World Precision Instruments) at the start of co-culture and every 24 h thereafter. The resistance value (Ω×cm^2) of an empty filter coated with collagen/fibronectin was subtracted from each measurement. Permeability coefficients (Pe) were evaluated after 24 h of co-culture as previously described^34. For sodium fluorescein Pe measurements, 10% FBS medium containing 1 μM sodium fluorescein solution was added to the apical chamber of the […]™ filter. 200 μL aliquots were extracted from the basolateral chamber (which contains 1.5 mL of medium) every 30 min and replaced by fresh medium. Using a fluorescent plate reader and calibration curve, the flux of fluorescein to the bottom chamber and permeability coefficients were calculated as described by Calabria et al^34. To determine the Pe of radiolabeled ligands, compounds were diluted to 0.4 μCi in transport buffer (distilled water with 0.12 M NaCl, 25 mM NaHCO3, 3 mM KCl, 2 mM MgSO4, 2 mM CaCl2, 0.4 mM K2HPO4, 1 mM HEPES, and 0.1% bovine serum albumin [BSA; Sigma]) and 0.5 mL were added to the upper chamber. 200 μL aliquots were extracted from the basolateral chamber every 15 min and replaced by fresh buffer. […] [^3H]-vincristine was purchased from American Radiolabeled Chemicals, while all other radiolabeled compounds were acquired from PerkinElmer. All compound incubations were conducted at 37° C., and the radioactive permeability experiments were carried out on a rotator. Triplicate filters were used for all permeability studies and the values listed throughout the Results section are representative of a minimum of two biological replicates.

[2] = cited from earlier work
[3] = tested on: BBB influx and efflux transporters (GLUT-1, MDR1, BCRP, MRP family, organic cation transporters); conditions: cited from earlier work
[4] = tested on: p-glycoprotein, BCRP and MRP family efflux transporters; test: Apical-to-basolateral transport of doxorubicin with efflux inhibitors, IMR90-4-derived BMEC/astrocyte model; format: in vitro ADME, human; conditions: astrocyte co-culture; 60 min; normalized to no inhibitor
[5] = tested on: p-glycoprotein, BCRP, and the MRP family; test: Doxorubicin accumulation assay with efflux inhibitors in monocultured IMR90-4-derived BMECs; format: in vitro ADME, human; conditions: monoculture; doxorubicin 0.25 μCi, 1 h; 5 μM cyclosporin A, 1 μM Ko143 or 10 μM MK 571
[6] = biological target: p-glycoprotein (Homo sapiens, UniProt P08183)
Sequence of p-glycoprotein (P08183 whole entry): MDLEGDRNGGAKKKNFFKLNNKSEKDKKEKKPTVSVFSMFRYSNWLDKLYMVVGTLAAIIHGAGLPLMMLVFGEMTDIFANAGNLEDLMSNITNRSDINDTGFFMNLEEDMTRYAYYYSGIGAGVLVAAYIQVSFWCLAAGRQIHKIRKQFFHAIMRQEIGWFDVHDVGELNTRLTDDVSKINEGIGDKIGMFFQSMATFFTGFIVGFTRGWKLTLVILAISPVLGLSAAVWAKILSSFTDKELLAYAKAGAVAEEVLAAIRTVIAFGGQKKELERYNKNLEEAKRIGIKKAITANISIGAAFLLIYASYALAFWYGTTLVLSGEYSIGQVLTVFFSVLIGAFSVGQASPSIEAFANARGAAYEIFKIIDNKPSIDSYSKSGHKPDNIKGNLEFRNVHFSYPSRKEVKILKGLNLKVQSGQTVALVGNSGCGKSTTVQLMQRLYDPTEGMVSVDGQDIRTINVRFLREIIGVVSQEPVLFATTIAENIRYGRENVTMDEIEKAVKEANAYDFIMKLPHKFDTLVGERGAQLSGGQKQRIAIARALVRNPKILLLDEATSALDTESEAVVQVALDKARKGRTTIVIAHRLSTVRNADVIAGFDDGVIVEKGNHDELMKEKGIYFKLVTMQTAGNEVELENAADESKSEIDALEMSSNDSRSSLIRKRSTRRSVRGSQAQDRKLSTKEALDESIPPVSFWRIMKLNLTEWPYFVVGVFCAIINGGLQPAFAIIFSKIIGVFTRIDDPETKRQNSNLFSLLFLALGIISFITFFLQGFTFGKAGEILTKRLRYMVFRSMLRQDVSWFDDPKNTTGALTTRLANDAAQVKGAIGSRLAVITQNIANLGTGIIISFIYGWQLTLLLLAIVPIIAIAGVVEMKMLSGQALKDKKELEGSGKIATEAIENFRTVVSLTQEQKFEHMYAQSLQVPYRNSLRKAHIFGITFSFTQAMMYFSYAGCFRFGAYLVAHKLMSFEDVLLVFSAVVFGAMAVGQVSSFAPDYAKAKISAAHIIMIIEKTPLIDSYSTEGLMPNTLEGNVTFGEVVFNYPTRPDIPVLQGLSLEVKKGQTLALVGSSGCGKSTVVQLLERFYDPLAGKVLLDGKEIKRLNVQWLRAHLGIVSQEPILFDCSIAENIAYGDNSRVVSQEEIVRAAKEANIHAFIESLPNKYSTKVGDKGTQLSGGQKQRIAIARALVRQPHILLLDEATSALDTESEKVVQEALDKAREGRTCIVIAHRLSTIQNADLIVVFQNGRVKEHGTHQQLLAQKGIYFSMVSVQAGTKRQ

[7] = tested on: differentiating IMR90-4 cultures; test: Claudin-5 and occludin localization and western blots in differentiating cultures under XAV-939; format: cell-based, human; conditions: data not shown
Description: Cells were washed once with PBS and fixed in either 2% paraformaldehyde or 100% ice-cold methanol for 15 min. The cells were then blocked with 40% goat serum in PBS (40% PBSG). If probing for an intracellular antigen, 0.1% TX-100 was present in the 40% PBSG. The cells were then incubated in 40% PBSG containing primary antibody (see Table 5 for list) for one h at room temperature. After three washes in PBS, cells were incubated in 40% PBSG containing goat anti-rabbit Texas Red (1:500; Invitrogen) or goat anti-mouse Alexa 488 (1:500; Invitrogen). Cell nuclei were labeled with 300 nM 4′,6-Diamidino-2-pheny-lindoldihydrochloride (DAPI) for 10 min. Cells were washed three times in PBS and visualized. In situ hybridization for detection of WNT7A and WNT7B transcripts was conducted similar to the method described by Planell-Saguer et al^58. Briefly, cells were washed once with PBS and fixed in 2% paraformaldehyde for 10 min, followed by permeabilization in PBS containing 0.1% TX-100 for 5 min. Pre-hybridization was performed with a water-based solution containing 3% BSA and 4× saline-sodium citrate buffer (SSC; Fisher), followed by a 1 h hybridization in 4×SSC and 10% dextran sulfate (Fisher) at room temperature. Digoxigenin-labeled locked nucleic acid probes were purchased from Exiqon (sequences found in Table 6). […]

[8] = tested on: Wnt/β-catenin pathway; test: Quantitative RT-PCR of genes elevated during BMEC specification under Wnt inhibition; format: cell-based, human; conditions: IMR90-4, 7 days UM; SFRP2 250 then 750 ng/mL, or 10 μM XAV-939 from day 2, versus untreated or DMSO
Description: Cells were differentiated as previously described. […] For RNA collection, cells were washed once with PBS and dissociated with trypsin or accutase. Total RNA was extracted using an RNeasy Mini Kit (Qiagen) according to the manufacturer's instructions. cDNA was generated from 1 μg of RNA using Omniscript reverse transcriptase (Qiagen) and oligo-dT primers (Invitrogen). Quantitative PCR (qPCR) was then performed using 1 μL of cDNA and iQ SYBR Green Supermix (Bio-Rad) on an iCycler (Bio-Rad). RT-PCR was also performed using GoTaq Green Master Mix (Promega). Primer sequences are supplied in Table 8. Relative expression was quantified using the comparative cycle threshold (CT) method, normalizing to glyceraldehyde-3-phosphate dehydrogenase (GAPDH) expression. Fold difference was calculated as x^−ΔΔCT, where x refers to primer efficiency calculated according LinRegPCR version 12.3^59. Transcript amplification was analyzed by 2% agarose gel electrophoresis of the qPCR or RT-PCR products.

[9] = tested on: differentiating IMR90-4 iPSC cultures (BMEC specification); test: Flow cytometry of PECAM-1/GLUT-1 expression in differentiating IMR90-4 cultures under Wnt inhibition; format: cell-based, human
Description: Cells were harvested via Accutase (Invitrogen) incubation for 2-3 min, fixed in 100% ice-cold methanol for 20 min, and blocked with 40% PBSG for 20 min at room temperature. Primary antibody labeling (Table 5) was performed in 10% PBSG for 1 h at room temperature. IgG controls were used at the same concentration. After a wash with 5% FBS in PBS, secondary antibodies (goat anti-rabbit Alexa 488 and goat anti-mouse Alexa 647; 1:200) in 10% PBSG were added to each sample for 30 min at room temperature. After two washes with 5% FBS in PBS, the samples were analyzed on a FACScaliber flow cytometer. PECAM-1^+ events were quantified using a PECAM-1/forward scatter dot plot referenced to a rabbit IgG control. GLUT-1^+ events were quantified using a GLUT-1/forward scatter dot plot referenced to a 4D UM culture that lacked BMECs. Events that were found in both of these positive gates were classified as PECAM-1^+/GLUT-1^+ cells. βIII tubulin and nestin expression were quantified against rabbit and mouse IgG controls, respectively. Data are presented as two-dimensional dot plots with color codes to indicate events within each gate.

[10] = Sodium fluorescein permeability, IMR90-4-derived BMEC/astrocyte co-culture; format: in vitro ADME; conditions: human; IMR90-4-derived BMECs, astrocyte co-culture, 1 μM sodium fluorescein; read-out: fluorescein permeability coefficient (Pe) (converted)
Description: (§1) Permeability coefficients were evaluated after 24 hours of co-culture as previously described. […] Using a fluorescent plate reader and calibration curve, the rate of fluorescene influx to the bottom chamber was calculated, and final values for permeability coefficients were then calculated according to Calabria et al.^34.

[11] = tested on: hCMEC/D3 line; conditions: hCMEC/D3 line (ref. 9); cited from earlier work
[12] = tested on: primary human BMECs; conditions: primary human BMECs (ref. 56); cited from earlier work
[13] = Sodium fluorescein permeability, DF19-9-11T-derived BMECs; format: in vitro ADME; conditions: human, 1 μM sodium fluorescein, read-out: fluorescein permeability coefficient (Pe), average (converted)
Description: as §1

[14] = IMR90-4-derived BMEC/astrocyte co-culture model
[15] = IMR90-4-derived BMECs co-cultured with rat astrocytes, radiolabeled compound, apical to basolateral over 1 h, 37° C., mean ± SD of biological replicates
[16] = efflux transporter substrates (Table 6)

COc1cc2c(c(OC)c1OC)-c1ccc(OC)c(=O)cc1[C@@H](NC(C)=O)CC2 [Colchicine]
Pe value [1, 14]: 1.53 ×10⁻⁶ cm/s | Average Pe [1, 15]: 0.09 ± 0.1 10^−3 cm/min | Octanol/water partition coefficient (logD) [2]: 1.03

CN1C(=O)CN=C(c2ccccc2)c2cc(Cl)ccc21 [Diazepam]
Pe value [1, 14]: 18.5 ×10⁻⁶ cm/s | Average Pe [1, 15]: 1.11 ± 0.45 10^−3 cm/min

COc1cccc2c1C(=O)c1c(O)c3c(c(O)c1C2=O)C[C@@](O)(C(=O)CO)C[C@@H]3O[C@H]1C[C@H](N)[C@H](O)[C@H](C)O1 [Doxorubicin]
Transporter recognition [3, 16]: MDR1, BCRP, MRP1, MRP2

COc1ccc2c3c([nH]c2c1)[C@H](CC(C)C)N1C(=O)[C@H](CCC(=O)OC(C)(C)C)NC(=O)[C@@H]1C3 [Ko143]
transport of doxorubicin from the apical to basolateral chamber in the presence of inhibitor [4]: 1.3 fold | accumulation of doxorubicin in the presence of inhibitor [5]: increased | Transporter recognition ([3]; efflux transporter inhibitors (Table 6)): BCRP

CN(C)C(=O)CCSC(SCCC(=O)O)c1cccc(/C=C/c2ccc3ccc(Cl)cc3n2)c1 (stereo not drawn) [MK 571]
transport of rhodamine 123 from the apical to basolateral chamber in the presence of inhibitor [6]: not

COc1cc2nc(N3CCN(C(=O)c4ccco4)CC3)nc(N)c2cc1OC [Prazosin]
Pe value [1, 14]: 4.77 ×10⁻⁶ cm/s | Average Pe [1, 15]: 0.29 ± 0.04 10^−3 cm/min | Octanol/water partition coefficient (logD) [2]: 2.16

OC[C@H]1O[C@@](CO)(O[C@H]2O[C@H](CO)[C@@H](O)[C@H](O)[C@H]2O)[C@@H](O)[C@@H]1O [Sucrose]
Octanol/water partition coefficient (logD) [2]: −3.3

CC[C@]1(O)C[C@H]2CN(CCc3c([nH]c4ccccc34)[C@@](C(=O)OC)(c3cc4c(cc3OC)N(C=O)[C@H]3[C@@](O)(C(=O)OC)[C@H](OC(C)=O)[C@]5(CC)C=CCN6CC[C@]43[C@@H]65)C2)C1 [Vincristine]
Average Pe ([1]; human, 1 h): 0.06 ± 0.02 10^−3 cm/min | Pe value ([1]; human, 1 h): 1.03 ×10⁻⁶ cm/s | Octanol/water partition coefficient (logD) [2]: 2.8

Oc1nc(-c2ccc(C(F)(F)F)cc2)nc2c1CSCC2 [XAV-939]
claudin-5 or occludin localization ([7]; XAV-939 treatment): did not alter | amounts of claudin-5 and occludin by western blots ([7]; regardless of XAV-939 treatment): equal amounts | expression of LEF1, FST, STRA6, FZD6, SLC2A1 and ABCB1 by quantitative RT-PCR [8]: statistically significant downregulation | Mean per cell expression of GLUT-1 ([9]; IMR90-4, 6D UM 2D EC, 10 μM XAV-939, DMSO control 285): 272 A.U. | % GLUT-1^+/PECAM-1^+ ([9]; IMR90-4, 6D UM 2D EC, 10 μM XAV-939 from day 2 of UM, DMSO control 64%): 46% | % PECAM-1^+ overall ([9]; IMR90-4, 6D UM 2D EC, 10 μM XAV-939 from day 2 of UM, DMSO control 68%): 61% | net reduction in the overall number of PECAM-1^+/GLUT-1^+ BMECs ([9]; IMR90-4, XAV-939 versus DMSO control): 20%

O=C1OC2(c3ccc(O)cc3Oc3cc(O)ccc32)c2ccccc21 [sodium fluorescein]
Papp A→B at 1 μM [10]: 0.0367 ×10⁻⁶ cm/s | reported sodium fluorescein Pe [11]: 56.7 ×10⁻⁶ cm/s | reported sodium fluorescein Pe [12]: 53.3 ×10⁻⁶ cm/s | Papp A→B at 1 μM [13]: 0.085 ×10⁻⁶ cm/s

Inulin
Average Pe [1, 15]: 0.029 ± 0.015 10^−3 cm/min | Octanol/water partition coefficient (logD) [2]: −0.25 | Transporter recognition ([3]; compounds of the permeability screen (Table 5)): None

Rhodamine 123
Transporter recognition [3, 16]: MDR1

B1: SFRP2: mouse secreted protein that binds to soluble Wnts and prevents upstream activation of the Wnt pathway (protein, UniProt P97299 25-295, looked up)
Secreted frizzled-related …: LFLFGQPDFSYKRSNCKPIPANLQLCHGIEYQNMRLPNLLGHETMKEVLEQAGAWIPLVMKQCHPDTKKFLCSLFAPVCLDDLDETIQPCHSLCVQVKDRCAPVMSAFGFPWPDMLECDRFPQDNDLCIPLASSDHLLPATEEAPKVCEACKTKNEDDNDIMETLCKNDFALKIKVKEITYINRDTKIILETKSKTIYKLNGVSERDLKKSVLWLKDSLQCTCEEMNDINAPYLVMGQKQGGELVITSVKRWQKGQREFKRISRSIRKLQC
expression of LEF1, FST, STRA6, FZD6, SLC2A1 and ABCB1 by quantitative RT-PCR [8]: statistically significant downregulation
